Results published in ChEMBL document CHEMBL5726175, “sGC stimulators” (2019).

Assay: sGC-HEK-cGMP Assay: Human embryonic kidney cells (HEK293), endogenously expressing soluble guanylate cyclase (sGC), were used to evaluate the activity of test compounds. Compounds stimulating the sGC enzyme should cause an increase in the intracellular concentration of cGMP. HEK 293 cells were seeded in Dulbecco's Modification of Eagle's Medium supplemented with fetal bovine serum (10% final) and penicillin (100 U/mL)/streptomycin (100 μg/mL) in a 50 μL volume at a density of 1.5×10^4 cells/well in a poly-D-lysine coated 384 well flat bottom plate. Cells were incubated overnight at 37° C. in a humidified chamber with 5% CO2. Medium was aspirated and cells were washed with 1× Hank's Buffered Saline Salt Solution (50 μL). Cells were then incubated for 15 minutes at 37° C. with 50 μL of a 0.5 mM 3-isobutyl-1-methylxanthine (IBMX) solution. Test article and Diethylenetriamine NONOate (DETA-NONOate) solutions (x μM concentration for test article solution and 10 μM concentration for DETA-NONOate solution; wherein x is one of the following concentrations: 0.029 nM to 30000 nM). were then added to the assay mixture and the resulting mixture incubated at 37° C. for 20 minutes. After the 20 minute incubation, the assay mixture was aspirated and 10% acetic acid containing 150 ng/mL+3-cGMP (internal standard for LCMS) (50 μL) was added to the cells. The plate was incubated at 4° C. for 30 minutes in the acetic acid solution to stop the reaction and lyse the cells. The plates were then centrifuged at 1,000 g for 3 minutes at 4° C. and the supernatant transferred to a clean reaction plate for LCMS analysis.cGMP concentrations were determined from each sample using the LCMS conditions below (Table 5) and calculated standard curve. The standard curve was prepared in 10% acetic acid with 150 ng/mL+3cGMP (isotopically labelled cGMP with a weight 3 units higher than wild type) with the following final concentrations of cGMP in ng/mL: 1, 5, 10, 50, 100, 250, 500, 1000, 2000.
Assay type: cell-based

SMILES | EC50
O=COC1CNCCN1c1nc(-c2cc(-c3ccon3)n(Cc3ccccc3F)n2)ncc1F (centres undefined) | > 1000 nM
O=COC1c2[nH]cnc2CCN1c1nc(-c2cc(-c3ccon3)n(Cc3ccccc3F)n2)ncc1F (centres undefined) | > 1000 nM
COc1ccc2c(c1)CCN(c1nc(-c3cc(-c4ccon4)n(Cc4ccccc4F)n3)ncc1F)C2OC=O (centres undefined) | < 100 nM
CC(=O)c1cc(-c2ncc(F)c(N3CCC[C@H](C)[C@@H]3OC=O)n2)nn1Cc1ccccc1F | in the range around 550 nM
COC(=O)N1CCN(c2nc(-c3cc(-c4ccon4)n(Cc4ccccc4F)n3)ncc2F)C(OC=O)C1 (centres undefined) | > 1000 nM
O=COC1c2ccc(O)cc2CCN1c1nc(-c2cc(-c3ccon3)n(Cc3ccccc3F)n2)ncc1F (centres undefined) | > 1000 nM
C[C@H]1CCCN(c2nc(-c3cc(-c4ccon4)n(Cc4cccc(F)c4F)n3)ncc2F)[C@H]1OC=O | < 100 nM
Fc1ccccc1Cn1nc(-c2ncc(F)c(N3CCCC4CC43)n2)cc1-c1ccon1 (centres undefined) | in the range around 550 nM
O=CO[C@H](Cc1ccc(O)cc1)Nc1nc(-c2cc(-c3ccon3)n(Cc3ccccc3F)n2)ncc1F | > 1000 nM
